Experimental data as given in patent publication US20090047244A1, “MACROCYCLIC SERINE PROTEASE INHIBITORS I” (Idenix Pharmaceuticals, Inc., priority 2007, published 2009).
Like-named read-outs stand apart in the source and are kept apart here.

Conditions: rcm bond

CCOC(=O)[C@@]12C[C@H]1C=CCCCCN(C)C(=O)N[C@@H](CCOc1cc(-c3ccccc3)nc3cc(OC)ccc13)C(=O)N2
ring closure, yield of all isomers (from C=CCCCCN(C)C(=O)N[C@@H](CCOc1cc(-c2ccccc2)nc2cc(OC)ccc12)C(=O)N[C@]1(C(=O)OCC)C[C@H]1C=C, Hoveyda-Grubbs 1st generation, DCM, 1.6 mM, 40.0 °C, 16.0 h): 22%

CCOC(=O)[C@@]12C[C@H]1C=CCCCCCN(C)C(=O)N[C@@H](CCOc1cc(-c3ccccc3)nc3cc(OC)ccc13)C(=O)N2
ring closure, yield of all isomers (from C=CCCCCCN(C)C(=O)N[C@@H](CCOc1cc(-c2ccccc2)nc2cc(OC)ccc12)C(=O)N[C@]1(C(=O)OCC)C[C@H]1C=C, Hoveyda-Grubbs 1st generation, DCM, 1.6 mM, 40.0 °C, 16.0 h): 64%

CCOC(=O)[C@@]12C[C@H]1/C=C\CCCCN(C)C(=O)N[C@@H](CCO[Si](C)(C)C(C)(C)C)C(=O)N2
ring closure, yield of all isomers (from C=CCCCCN(C)C(=O)N[C@@H](CCO[Si](C)(C)C(C)(C)C)C(=O)N[C@]1(C(=O)OCC)C[C@H]1C=C, Hoveyda-Grubbs 1st generation, DCM, 1.96 mM, 40.0 °C, 24.0 h): 50%

CCOC(=O)[C@@]12C[C@H]1C=CCCCCN(C)C(=O)N[C@@H](CO[Si](C)(C)C(C)(C)C)C(=O)N2
ring closure, yield of all isomers (from C=CCCCCN(C)C(=O)N[C@@H](CO[Si](C)(C)C(C)(C)C)C(=O)N[C@]1(C(=O)OCC)C[C@H]1C=C, Hoveyda-Grubbs 1st generation, 1,2-dichloroethane, 9.9 mM, 70.0 °C, 16.0 h): 48.1%

COc1ccc2c(OCC[C@@H]3NC(=O)N(C)CCCCC=C[C@@H]4C[C@@]4(C(=O)NS(=O)(=O)C4CC4)NC3=O)cc(-c3ccccc3)nc2c1
ring closure, yield of all isomers (from C=CCCCCN(C)C(=O)N[C@@H](CCOc1cc(-c2ccccc2)nc2cc(OC)ccc12)C(=O)N[C@]1(C(=O)NS(=O)(=O)C2CC2)C[C@H]1C=C, Hoveyda-Grubbs 2nd generation, DCM, 1.5 mM, 100.0 °C, 1.0 h): 7.9%
